{
  "source": "patent US12012394B2",
  "about": "“Alpha-synuclein ligands” (Washington University, priority 2018, dated 2024)",
  "key": {"α-synuclein fibrils [1]": {"biological_target": "T1, α-synuclein fibrils (Homo sapiens (Human), UniProt P37840)", "assay": "Specific binding of TZ61-84: displacement of [18F]TZ-61-84 from fibrils", "settings": "[18F]TZ-61-84 at 0.0195 nM", "description": "(§1) TZ61-84 was screened for binding to Banner PD tissue, AD tissue, α-synuclein fibrils, Aβ fibrils and in controls by measuring how well it displaced [^18F]TZ-61-84 (at 0.0195 nM) from each substrate."}, "PD-seeded fibrils [2]": {"biological_target": "T2, PD-seeded fibrils (Homo sapiens (Human), UniProt P37840)", "assay": "Heterologous competition binding assay with [18F]TZ61-44 as radioligand", "settings": "radioligand [18F]TZ61-44, 25 nM PD-seeded fibrils; for Ki: Cheng-Prusoff from EC50", "description": "(§2) The equilibrium inhibitor constant (Ki) of a series of compounds was measured using heterologous radioactive binding assays with [^18F]TZ61-44, […], or [^125I]TZ61-84 as the screening radioligands. EC50 values for each compound were determined by fitting the data to the equation Y=Bottom+(Top−Bottom)/(1+(X−Log EC50)^−Hillcoefficient) using nonlinear regression by Kaleidagraph software, where Top and Bottom are the Y values for the top and bottom plateaus of the binding curve. The Ki values were derived from the EC50 values using the Cheng-Prusoff equation: Ki=EC50/(1+[radioligand]/Kd). FIGS. 5A-5E show the inhibition curves for TG-1-90B, TZ55-101, TZ61-84, TZ55-107, and TZ55-81 using [^18F]TZ61-44 as the radioligand. FIG. 11B-C show the inhibition curves for two separate experiments on PD fibrils for TZ55-101 using […] as the radioligand. FIGS. 12A-12F show the inhibition curves for TZ66-3, TZ64-015, TZ64-016, TZ64-018, TZ64-019, and TZ64-020 using [^18F]TZ61-44 as the radioligand. FIGS. 13A-13D show the inhibition curves for TZ66-9, TZ66-8, and TZ55-107 using [^18F]TZ61-44 as the radioligand."}, "Banner seeded fibrils": {"biological_target": "Banner seeded fibrils (Homo sapiens (Human), UniProt P37840)", "assay": "Saturation binding of [125I]TZ61-84 to Banner seeded fibrils", "description": "The binding efficacy (Kd) of TZ-61-84 was determined using a modified protocol. Specifically, saturation plots of radiolabeled [^125I]TZ61-84 were obtained measuring total and nonspecific binding of TZ61-84 to 100 nM Banner seeded fibrils. The results are depicted in FIG. 15B-15D and that TZ61-84 has a high binding affinity to α-synuclein (Kd<1 nM)."}, "Banner PD tissue": {"system": "Banner PD tissue", "assay": "Specific binding of TZ61-84: displacement of [18F]TZ-61-84 from tissue", "settings": "[18F]TZ-61-84 at 0.0195 nM", "description": "as §1"}, "Banner AD tissue": {"system": "Banner AD tissue", "assay": "Homologous competition radioligand binding assay, AD tissue", "parameters": "species or system human", "settings": "[18F]28", "description": "(§3) The equilibrium dissociation constant (Kd) for a series of compounds was determined using direct radioactive competitive binding assays (homologous or heterologous) with either recombinant α-synuclein fibrils or brain tissue homogenates from AD cases.\nBrain tissue samples were selected from an autopsy case series of patients evaluated for parkinsonism by movement disorders specialists at the Movement Disorders Center of Washington University School of Medicine in St. Louis. […] Dementia was determined by a movement disorders specialist based on clinical assessment of cognitive dysfunction sufficiently severe to impair activities of daily living, with further evaluation of cognitive impairment using the AD8 and Mini-Mental Status Exam (MMSE) [Galvin, J. E., et al., “The AD8: a brief informant interview to detect dementia,” 2005, Neurology 65:559-564; Folstein, M. F., et al., ““Mini-mental state”. […] LB stage was assessed at autopsy using a PD staging scale (range: 0, 1-6) [Braak, H., et al., “Stages in the development of Parkinson's disease-related pathology,” 2004, Cell Tissue Res., 318:121-134]. PD cases were selected based on a clinical diagnosis of PD plus dementia, Braak LB stage 5-6 pathology, and the absence of significant Aβ or tau pathology determined by immunohistochemistry. […]"}, "α-synuclein fibrils [3]": {"biological_target": "T1, α-synuclein fibrils", "assay": "Direct radioligand binding assay of [18F]28, α-synuclein fibrils", "settings": "α-synuclein fibrils", "description": "as §3\n(§4) Recombinant protein was produced in E. coli using protocols based on previously described methods for α-synuclein [Giasson, B. I., et al., “Mutant and wild type human alpha-synucleins assemble into elongated filaments with distinct morphologies in vitro,” 1999, J Biol. Chem., 274:7619-7622; Huang, C., et al., “A new method for purification of recombinant human alpha-synuclein in Escherichia coli,” 2005, Protein Expr Purif, 42:173-177; Yu, L., et al, “Synthesis and in vitro evaluation of á-synuclein ligands,” 2012, Bioorg. […]\n(§5) Purified recombinant α-synuclein monomer (2 mg/ml) was incubated in 20 mM Tris-HCl, pH 8.0, 100 mM NaCl for 72 h at 37 C with shaking at 1000 rpm in an Eppendorf Thermomixer. […] The concentration of α-synuclein monomer in the supernatant was determined in a BCA protein assay according to the manufacturer's instructions, using a bovine serum albumin (BSA) standard curve. The measured decrease in α-synuclein monomer concentration was used to determine the concentration of fibrils in the 72 h fibril reaction mixture. […]"}, "α-synuclein fibrils [4]": {"system": "α-synuclein fibrils", "assay": "Direct radioligand binding assay of [18F]28, α-synuclein fibrils", "parameters": "species or system human", "settings": "comparison of Kd on fibrils and AD tissue", "description": "as §3, §4, §5"}, "α-synuclein fibrils [5]": {"biological_target": "T1, α-synuclein fibrils", "assay": "Thioflavin T fluorescence competitive assay", "settings": "read-out: Thioflavin T assay Ki; competition with ThT on recombinant α-synuclein fibrils; at least three experiments", "experimental": "α-Synuclein recombinant protein was produced in E. coli. BL21(DE3)RIL E. coli were transformed with a pRK172 bacterial expression plasmid containing the human α-synuclein coding sequence. […] Overnight cultures were pelleted by centrifugation at 3,900×g for 10 min at 25° C. Bacterial pellets were resuspended in 20 mL osmotic shock buffer (30 mM Tris-HCl, 2 mM EDTA, 40% sucrose, pH 7.2) by gentle vortexing and incubated at room temperature for 10 minutes. The cell suspension was then centrifuged at 8,000×g for 10 min at 25° C. and the pellet was resuspended in 22.5 mL cold H2O before adding 9.4 μL 2 M MgCl2 to each tube. The suspension was incubated on ice for 3 min prior to centrifugation at 20,000×g for 15 min at 4° C. The supernatant was transferred to a fresh tube, streptomyocin was added to a final concentration of 10 mg/mL, and then centrifuged at 20,000×g for 15 min at 4° C. The supernatant from this step was collected and dithiothreitol (DTT) and Tris-HCl were added to final concentrations of 1 mM and 20 mM respectively, before boiling for 10 min to precipitate heat-sensitive proteins, which were pelleted at 20,000×g for 15 minutes at 4° C. The supernatant was collected and filtered through a 0.45 μm surfactant free cellulose acetate filter (Corning, Corning, NY) before loading onto a 1 mL DEAE Sepharose column equilibrated in 20 mM Tris-HCl pH 8, 1 mM EDTA, and 1 mM DTT. The DEAE column was washed with 20 mM Tris-HCl pH 8, 1 mM EDTA, 1 mM DTT before eluting α-synuclein protein in 20 mM Tris-HCl, pH 8, buffer with 1 mM EDTA, 1 mM DTT and 0.3 M NaCl. The purified α-synuclein protein was dialyzed overnight in 10 mM Tris-HCl, pH 7.6, 50 mM NaCl, and 1 mM DTT.\nThe purified, recombinant α-synuclein monomer (2 mg/mL) was incubated in Tris-HCl (20 mM) and NaCl (100 mM) while shaking at 1000 rpm in an Eppendorf Thermomixer in a 37° C. temperature-controlled room for 72 hours. To determine the concentration of fibrils, the reaction mixture (100 μL) was centrifuged at 18,000×g for 10 minutes to separate fibrils from monomer. The α-synuclein monomer and other soluble proteins in the supernatant were removed, and the fibril pellet was resuspended in 100 μL solution of Tris-HCl (20 mM) and NaCl (100 mM). This fibril suspension was used in a bicinchoninic acid (BCA) protein assay along with a bovine serum albumin (BSA) standard curve to determine the concentration of fibrils in the 72 hour fibril reaction mixture.\nTo prepare the fibrils for performing binding assays, the fibril reaction mixture prepared above was centrifuged at 18,000×g for 10 minutes. The supernatant was discarded and the fibril pellet was resuspended in Tris-HCl buffer (30 nM, pH=7.4) to achieve the desired concentration (3 or 6 μM) of fibrils for use in the assay.\nThe ThT solution (6 μM) in Tris-HCl buffer (30 nM, pH=7.4, 40 μL) was added to each of three cells in a 96 cell plate for fluorescence detection containing α-synuclein fibrils suspension (3.0 μM) in the Tris-HCl buffer (30 nM, pH=7.4, 40 μL). The mixture was incubated at room temperature for 1 hour on the shaking plate. The reaction plate was scanned by the excitation wavelength range from 430 to 465 nm. The maximum excitation wavelength (λex) was determined according to the fluorescent intensity-excitation wavelength curve."}, "PD fibrils": {"biological_target": "PD fibrils (Homo sapiens (Human), UniProt P37840)", "assay": "Heterologous competition binding assay with [11C]Tg-1-90B as radioligand", "settings": "radioligand Tg-1-90-B", "description": "as §2"}, "AD Tissue 6843 [6]": {"system": "AD Tissue 6843", "assay": "Heterologous competition binding assay with [11C]Tg-1-90-B, AD tissue", "settings": "radioligand [11C]Tg-1-90-B", "description": "FIG. 11D is a plot of a heterologous competition binding assay of TZ55-101 in the presence of the radioligand [^11C]Tg-1-90-B and AD tissue 6843.\nas §2\nThe binding to AD fibrils was also assessed for TZ55-101 in FIG. 11D."}, "AD Tissue 2846": {"biological_target": "AD Tissue 2846", "assay": "3H radioligand competition, AD Tissue 2846", "assay_type": "binding", "settings": "hot concentration 2 nM", "description": "(§6) A series of compounds were synthesized and the Ki (nM) in the presence of Fibrils 4174, PD-seeded fibrils (using Tg-1-90B as the radioligand), AD Tissue 6843 and/or AD Tissue 2846 was determined. In each experiment, the “hot” concentration was 2 nM."}, "Fibrils 4174": {"biological_target": "Fibrils 4174 (Homo sapiens, UniProt P37840)", "assay": "3H radioligand competition, Fibrils 4174", "assay_type": "binding", "settings": "hot concentration 2 nM", "description": "as §6"}, "PD-seeded fibrils [7]": {"biological_target": "T2, PD-seeded fibrils", "assay": "Radioligand competition, PD-seeded fibrils (Tg-1-90B as radioligand)", "assay_type": "binding", "settings": "PD-seeded fibrils (Tg-1-90B radioligand); hot concentration 2 nM", "description": "as §6"}, "AD Tissue 6843 [8]": {"biological_target": "AD Tissue 6843", "assay": "3H radioligand competition, AD Tissue 6843", "assay_type": "binding", "settings": "hot concentration 2 nM", "description": "as §6"}},
  "note": "“And” between values parts separate entries of the source, which are not always exact repeats. Equal values may be shown once.",
  "data": [
    {"smiles": "COc1ccc(Nc2ccc3cc(OC/C=C/I)ccc3n2)cn1", "note": "[TZ61-84]", "values": [
      {"measurement": "affinity for α-synuclein fibrils over Aβ fibrils", "setting": "α-synuclein fibrils [1]", "value": "slightly more affinity"},
      {"measurement": "EC50", "setting": "PD-seeded fibrils [2]", "value": 17, "unit": "nM"},
      {"measurement": "Ki", "setting": "PD-seeded fibrils [2]", "value": 16, "unit": "nM"},
      {"measurement": "Kd", "setting": "Banner seeded fibrils; 100 nM Banner seeded fibrils, saturation binding", "value": "0.34 nM and 0.5 nM"},
      {"measurement": "Kd", "setting": "Banner seeded fibrils; 100 nM fibrils, saturation plot, unit inferred", "value": "0.338 nM and 0.496 nM"},
      {"measurement": "Bmax", "setting": "Banner seeded fibrils; 100 nM fibrils, saturation plot, unit not given, listed as [^125I]TZ61-84", "value": "259.7 and 310.5"},
      {"measurement": "affinity for PD Banner tissue compared to AD Banner tissue", "setting": "Banner PD tissue", "value": "high affinity"}
    ]},
    {"smiles": "COc1cc(-c2nc(-c3ccc4cc(OCCF)ccc4n3)no2)ccn1", "note": "[Compound 28, 3-(6-(2-Fluoroethoxy)quinolin-2-yl)-5-(2-methoxypyridin-4-yl)-1,2,4-oxadiazole]", "values": [
      {"measurement": "Bmax", "setting": "Banner AD tissue", "value": 1082, "unit": "pmol/mg"},
      {"measurement": "Kd", "setting": "Banner AD tissue", "value": 25, "unit": "nM"},
      {"measurement": "Kd", "setting": "α-synuclein fibrils [3]", "value": 18, "unit": "nM"},
      {"measurement": "selectivity for α-synuclein fibrils over AD tissues", "setting": "α-synuclein fibrils [4]", "value": "lacks selectivity"},
      {"measurement": "Ki", "setting": "α-synuclein fibrils [5]", "value": 17, "unit": "nM"}
    ]},
    {"smiles": "COc1ccc(-c2ccc3cc(-c4cnc5ccccc5c4)ccc3n2)cn1", "note": "[TZ55-101]", "values": [
      {"measurement": "EC50", "setting": "PD fibrils", "value": "21 nM and 11 nM"},
      {"measurement": "Ki", "setting": "PD fibrils; Cheng-Prusoff from EC50", "value": "20 nM and 10 nM"},
      {"measurement": "EC50", "setting": "PD-seeded fibrils [2]", "value": 15, "unit": "nM"},
      {"measurement": "Ki", "setting": "PD-seeded fibrils [2]", "value": 14, "unit": "nM"},
      {"measurement": "affinity for AD fibrils", "setting": "AD Tissue 6843 [6]", "value": "did not show significant affinity"}
    ]},
    {"smiles": "COc1ccc2nc(-c3noc(-c4ccc(-n5cccn5)cc4)n3)ccc2c1", "note": "[TZ46-148]", "values": [
      {"measurement": "Ki", "setting": "AD Tissue 2846", "value": 7, "unit": "nM"},
      {"measurement": "Ki", "setting": "Fibrils 4174", "value": 82, "unit": "nM"},
      {"measurement": "Ki", "setting": "PD-seeded fibrils [7]", "value": 17, "unit": "nM"},
      {"measurement": "Ki", "setting": "AD Tissue 6843 [8]", "value": 13, "unit": "nM"}
    ]}
  ]
}
